In patent US5753660A, “Substituted sulfonylalkanoylamino hydroxyethylamino sulfonamide retroviral protease inhibitors” (G. D. Searle & Co., priority 1996, dated 1998):

Legend:
HIV protease = molecular target: T1, HIV protease (Human immunodeficiency virus type 1 group M subtype B, UniProt P04585); experiment: HIV protease enzyme assay; format: biochemical; settings: HIV protease 12.3 nanomolar; substrate 80 μM; pH 6.4; ambient temperature
T1 construct: HIV protease is diluted in the assay buffer to a final enzyme concentration of 12.3 nanomolar, based on a molecular weight of 10,780
Text: The compounds of the present invention are effective HIV protease inhibitors. Utilizing an enzyme assay as described below, the compounds set forth in the examples herein disclosed inhibited the HIV enzyme. The preferred compounds of the present invention and their calculated IC50 (inhibiting concentration 50%, i.e., the concentration at which the inhibitor compound reduces enzyme activity by 50%) values are shown in Table 14. The enzyme method is described below. The substrate is 2-Ile-Nle-Phe(p-NO2)-Gln-ArgNH2. The positive control is MVT-101 (Miller, M. et al, Science, 246, 1149 (1989)] The assay conditions are as follows:
Assay buffer: 20 mM sodium phosphate, pH 6.4
The above described substrate is dissolved in DMSO, then diluted 10 fold in assay buffer. Final substrate concentration in the assay is 80 μM. HIV protease is diluted in the assay buffer to a final enzyme concentration of 12.3 nanomolar, based on a molecular weight of 10,780.
The final concentration of DMSO is 14% and the final concentration of glycerol is 18%. The test compound is dissolved in DMSO and diluted in DMSO to 10×the test concentration; 10 μl of the enzyme preparation is added, the materials mixed and then the mixture is incubated at ambient temperature for 15 minutes. The enzyme reaction is initiated by the addition of 40 μl of substrate. The increase in fluorescence is monitored at 4 time points (0, 8, 16 and 24 minutes) at ambient temperature. Each assay is carried out in duplicate wells.

HIV-1 = experiment: HIV inhibition assay in acutely infected CEM cells (tetrazolium/MTT based); format: cell-based; settings: Human immunodeficiency virus 1, CCRF-CEM, 168 h, HIV-1 1000 TCID50, MTT, 7 days
Method: The effectiveness of various compounds were determined in the above-described enzyme assay and in a CEM cell assay.
The HIV inhibition assay method of acutely infected cells is an automated tetrazolium based calorimetric assay essentially that reported by Pauwles et al, J. Virol. Methods, 20, 309-321 (1988). Assays were performed in 96-well tissue culture plates. CEM cells, a CD4+ cell line, were grown in RPMI-1640 medium (Gibco) supplemented with a 10% fetal calf serum and were then treated with polybrene (2 μug/ml). An 80 μl volume of medium containing 1×10^4 cells was dispensed into each well of the tissue culture plate. To each well was added a 100 μl volume of test compound dissolved in tissue culture medium (or medium without test compound as a control) to achieve the desired final concentration and the cells were incubated at 37° C. for 1 hour. A frozen culture of HIV-1 was diluted in culture medium to a concentration of 5×10^4 TCID50 per ml (TCID50 =the dose of virus that infects 50% of cells in tissue culture), and a 20 μl volume of the virus sample (containing 1000 TCID50 of virus) was added to wells containing test compound and to wells containing only medium (infected control cells). Several wells received culture medium without virus (uninfected control cells). Likewise, the intrinsic toxicity of the test compound was determined by adding medium without virus to several wells containing test compound. In summary, the tissue culture plates contained the following experiments:
In experiments 2 and 4 the final concentrations of test compounds were 1, 10, 100 and 500 μg/ml. Either azidothymidine (AZT) or dideoxyinosine (ddI) was included as a positive drug control. […] DMSO was added to all control wells at an appropriate concentration.
Following the addition of virus, cells were incubated at 37° C. in a humidified, 5% CO2 atmosphere for 7 days. Test compounds could be added on days 0, 2 and 5 if desired. On day 7,post-infection, the cells in each well were resuspended and a 100 μl sample of each cell suspension was removed for assay. A 20 μL volume of a 5 mg/ml solution of 3-(4,5-dimethylthiazol-2-yl)-2,5-diphenyltetrazolium bromide (MTT) was added to each 100 μL cell suspension, and the cells were incubated for 4 hours at […] in a 5% CO2 environment. […] To each sample was added 100 μl of 10% sodium dodecylsulfate in 0.01N HC1 to lyse the cells, and samples were incubated overnight. The absorbance at 590 nm was determined for each sample using a Molecular Devices microplate reader. Absorbance values for each set of wells is compared to assess viral control infection, uninfected control cell response as well as test compound by cytotoxicity and antiviral efficacy.

| Structure (SMILES) | IC50 (HIV protease) | EC50 (HIV-1) |
| --- | --- | --- |
| CC(C)CN(C[C@@H](O)[C@H](Cc1ccccc1)NC(=O)[C@H](C)CS(=O)(=O)CC(=O)NCC[N+]1([O-])CCOCC1)S(=O)(=O)c1ccc2c(c1)OCO2 [Example 5] | 10 nM | – |
| CC(C)CN(C[C@@H](O)[C@H](Cc1ccccc1)NC(=O)[C@H](C)CS(=O)(=O)C[C@H]1CCCN1)S(=O)(=O)c1ccc2c(c1)OCO2 [Example 17] | 4 nM | 160 nM |
| CC(C)CN(C[C@@H](O)[C@H](Cc1ccccc1)NC(=O)[C@H](C)CS(=O)(=O)CCc1ccccn1)S(=O)(=O)c1ccc2c(c1)OCO2 | 3 nM | 6 nM |
| CC(C)CN(C[C@@H](O)[C@H](Cc1ccccc1)NC(=O)[C@H](C)CS(=O)(=O)CC(=O)c1ccccc1)S(=O)(=O)c1ccc2c(c1)OCO2 [Example 9] | 4 nM | 39 nM |
| CC(C)CN(C[C@@H](O)[C@H](Cc1ccccc1)NC(=O)[C@H](C)CS(=O)(=O)CCC(=O)N1CCNCC1)S(=O)(=O)c1ccc2c(c1)OCO2 [Example 4] | 4 nM | – |
| CC(C)CN(C[C@@H](O)[C@H](Cc1ccccc1)NC(=O)[C@H](C)CS(=O)(=O)CC(=O)N1CCNCC1)S(=O)(=O)c1ccc2c(c1)OCO2 [Example 8] | 27 nM | – |
| CC(C)CN(C[C@@H](O)[C@H](Cc1ccccc1)NC(=O)[C@H](C)CS(=O)(=O)CCC(=O)N1CCOCC1)S(=O)(=O)c1ccc2c(c1)OCO2 [Example 6] | 24 nM | 123 nM |
| CC(C)CN(C[C@@H](O)[C@H](Cc1ccccc1)NC(=O)[C@H](C)CS(=O)(=O)CC(=O)NCC[N+]1([O-])CCCC1)S(=O)(=O)c1ccc2c(c1)OCO2 [Example 2] | 10 nM | – |
| CC(C)CN(C[C@@H](O)[C@H](Cc1ccccc1)NC(=O)[C@H](C)CS(=O)(=O)Cc1cc[nH]n1)S(=O)(=O)c1ccc2c(c1)OCO2 [Example 13] | 5 nM | 71 nM |
| CC(C)CN(C[C@@H](O)[C@H](Cc1ccccc1)NC(=O)[C@H](C)CS(=O)(=O)CC(=O)N1CCN(C(=O)OC(C)(C)C)CC1)S(=O)(=O)c1ccc2c(c1)OCO2 [Example 7] | 7 nM | – |
| CC(C)CN(C[C@@H](O)[C@H](Cc1ccccc1)NC(=O)[C@H](C)CS(=O)(=O)C[C@H]1CCCN1C(=O)OCc1ccccc1)S(=O)(=O)c1ccc2c(c1)OCO2 [Example 25] | 6 nM | 43 nM |
| CC(C)CN(C[C@@H](O)[C@H](Cc1ccccc1)NC(=O)[C@H](C)CS(=O)(=O)Cc1cncs1)S(=O)(=O)c1ccc2c(c1)OCO2 [Example 16] | 4 nM | 21 nM |
| CC(C)CN(C[C@@H](O)[C@H](Cc1ccccc1)NC(=O)[C@H](C)CS(=O)(=O)Cc1cn[nH]c1)S(=O)(=O)c1ccc2c(c1)OCO2 [Example 14] | 4 nM | 81 nM |
| CC(C)CN(C[C@@H](O)[C@H](Cc1ccccc1)NC(=O)[C@H](C)CS(=O)(=O)c1ccccn1)S(=O)(=O)c1ccc2c(c1)OCO2 [Example 19] | 11 nM | 174 nM |
| CC(C)CN(C[C@@H](O)[C@H](Cc1ccccc1)NC(=O)[C@H](C)CS(=O)(=O)Cc1c[nH]cn1)S(=O)(=O)c1ccc2c(c1)OCO2 [Example 12] | 7 nM | 187 nM |
| CC(C)CN(C[C@@H](O)[C@H](Cc1ccccc1)NC(=O)[C@H](C)CS(=O)(=O)Cc1nc2ccccc2[nH]1)S(=O)(=O)c1ccc2c(c1)OCO2 [Example 15] | 3 nM | 47 nM |
| CC(C)CN(C[C@@H](O)[C@H](Cc1ccccc1)NC(=O)[C@H](C)CS(=O)(=O)CCC(=O)N1CCN(C(=O)OC(C)(C)C)CC1)S(=O)(=O)c1ccc2c(c1)OCO2 [Example 3] | 4 nM | – |

Further lines, with some results ahead:

| IC50 (HIV protease) | Structure (SMILES) | EC50 (HIV-1) |
| --- | --- | --- |
| 9 nM | COC1O[C@H](CS(=O)(=O)C[C@@H](C)C(=O)N[C@@H](Cc2ccccc2)[C@H](O)CN(CC(C)C)S(=O)(=O)c2ccc3c(c2)OCO3)[C@@H](O)[C@H]1O (some centres unmarked) [Example 21] | – |
| 75 nM | CC(C)CN(C[C@@H](O)[C@H](Cc1ccccc1)NC(=O)[C@H](C)CSCC(=O)NCCN1CCCC1)S(=O)(=O)c1ccc2c(c1)OCO2 [Example 27] | – |
| 6 nM | CC(C)CN(C[C@@H](O)[C@H](Cc1ccccc1)NC(=O)[C@H](C)CS(=O)(=O)C[C@@H]1CCCN1)S(=O)(=O)c1ccc2c(c1)OCO2 [Example 18] | – |
| 22 nM | CCOC(=O)CCCSC[C@@H](C)C(=O)N[C@@H](Cc1ccccc1)[C@H](O)CN(CC(C)C)S(=O)(=O)c1ccc2c(c1)OCO2 [Example 11] | – |
| 63 nM | CC(C)CN(C[C@@H](O)[C@H](Cc1ccccc1)NC(=O)[C@H](C)CSCC(=O)N1CCOCC1)S(=O)(=O)c1ccc2c(c1)OCO2 [Example 22] | – |
| 25 nM | CC(C)CN(C[C@@H](O)[C@H](Cc1ccccc1)NC(=O)[C@H](C)CSCC(=O)N1CCSCC1)S(=O)(=O)c1ccc2c(c1)OCO2 [Example 24] | – |
| 12 nM | CC(C)CN(C[C@@H](O)[C@H](Cc1ccccc1)NC(=O)[C@H](C)CSCC(=O)N1CCN(C(=O)OC(C)(C)C)CC1)S(=O)(=O)c1ccc2c(c1)OCO2 [Example 23] | – |
| 16 nM | CC(C)CN(C[C@@H](O)[C@H](Cc1ccccc1)NC(=O)[C@H](C)CSCCC(=O)N1CCN(C(=O)OC(C)(C)C)CC1)S(=O)(=O)c1ccc2c(c1)OCO2 [Example 26] | – |
| 16 nM | CC(C)CN(C[C@@H](O)[C@H](Cc1ccccc1)NC(=O)[C@H](C)CS(=O)(=O)CC(=O)N1CCS(=O)(=O)CC1)S(=O)(=O)c1ccc2c(c1)OCO2 [Example 10] | – |
| 4 nM | CC(C)CN(C[C@@H](O)[C@H](Cc1ccccc1)NC(=O)[C@H](C)CS(=O)(=O)CC(CO)CO)S(=O)(=O)c1ccc2c(c1)OCO2 [Example 20] | – |
